Like-named read-outs stand apart in the source and are kept apart here.
Assays:
[1] = tested on: croton oil-induced dermatitis; test: Croton oil-induced atopic dermatitis; conditions: s.c., twice, 16 hrs and 2 hrs before croton oil
MMP-3 = test: PMA- or NGF-induced MMP-3 expression in PC12 cells, realtime PCR; assay type: cell-based
Description: RNA was isolated using the Cells-to-Ct kit and realtime PCR was performed using TaqMan primers and probes on the ABI 7900 (Life Technologies). cDNA array experiments were conducted using TaqMan primers and probes on the ABI 7900 PCR machine.
Figure 3 GTx-186 inhibits inflammation in vitro. Cells were serum starved for 2 days, pre-treated with indicated concentrations of GTx-186 for 30 min and treated with growth factors or cytokines for 12–16 hrs. RNA was extracted, cDNA synthesized, and expression of inflammatory genes were measured by realtime PCR using Taqman primer and probes. All experiments were performed in triplicate and repeated at least three times.

[2] = tested on: NIH3T3:FIG-ROS1 (S) xenograft
Description: Xenograft experiments were performed in nude mice as previously described. Briefly, a mixture of cells suspended in 0.0375 mL RPMI+10% FBS and 0.0625 mL Matrigel was injected s.c. into the hind left flank of each mouse.
Tumor volumes (A) and body weight (C) were measured biweekly. After sacrifice, tumor weights (B) were recorded and the amount of drug in serum and tumors were quantified using LC-MS/MS (D). *-significant at p<0.01; **-significant at p<0.001.

FIG-ROS1 = test: Phosphorylation of ROS1 fused to FIG in NIH3T3 cells, Western blotting; assay type: cell-based; conditions: 3 days
Description: (§1) Protein was extracted and immunoblotted with phospho-ROS1 and total ROS1 antibodies. C. […] Ba/F3 cells stably transfected with vector or FIG-ROS1 were plated in equal numbers and growth of the cells after 3 days was measured by SRB assay (F).

[3] = tested on: NIH3T3:FIG-ROS1 (S) cells; test: NIH3T3:FIG-ROS1 (S) cell proliferation, SRB assay; assay type: cell-based
Description: (§2) Adherent cells were plated at 10,000 cells per well in 96-well plates in respective medium. […] For cell cycle analysis, cells were plated in 6 well plates and treated for the indicated time points. Cells were fixed, stained with propidium iodide, and distribution in different phases of cell cycle was evaluated using flow cytometry.
as §1

HCC78 cells = test: Cell cycle analysis of HCC78 cells, flow cytometry; assay type: cell-based; conditions: 1 µM
Description: as §2, §1

HCC78 lung cancer cells = test: HCC78 lung carcinoma cell growth, SRB assay; assay type: cell-based; conditions: Homo sapiens, HCC78, 144 h, read-out: IC50, proliferation of HCC78 cells
Description: as §2, §1

[4] = tested on: carrageenan-induced air-pouch inflammation; test: Carrageenan-induced air pouch inflammation model; assay type: in vivo, Sprague Dawley rats; conditions: GTx-186 40 mg/kg; indomethacin 30 mg/kg s.c.
Description: Cytokine arrays were obtained from Ray Biotech (Norcross, GA) and arrays were processed according to manufacturer’s instructions. Briefly, arrays were incubated overnight with equal volume of air pouch exudates, washed, and incubated with secondary antibodies before developing using enhanced chemiluminescence.
Air was injected in the flanks of Sprague Dawley rats four days (20 mL) and two days (10 mL) before injection of carrageenan (1 mL of 2% carrageenan) in the pouch. Six hours after carrageenan administration, animals were sacrificed, 5 mL saline was injected into the pouch, pouch exudates were collected and the number of leukocytes and macrophages infiltrated into the pouch were counted under a microscope.
Figure 5 GTx-186 inhibits carrageenan-induced air-pouch inflammation in rats. A–C. A pouch was created subcutaneously in one flank of rats (n = 3) by injecting 20 ml air four days before and 10 ml air two days before treatment. […] Six hours after carrageenan administration, the animals were sacrificed, 5 ml saline was injected into pouch to flush the pouch fluid and the number of leukocytes and macrophages infiltrated into the pouch were counted under a microscope. TNF-α was measured using an ELISA in the pouch exudates from the experiment in panel B. (C). D. Effect of GTx-186 on inflammatory cytokines in carrageenan-induced air-pouch inflammation was measured in the pouch exudates using a cytokine array. Key cytokines were quantified and expressed as bar graphs on the right. […] 186-GTx-186; Indom-Indomethacin; Dex-Dexamethasone; TNF-Tumor Necrosis Factor; IL-Interleukin; CINC-Cytokine-Induced Neutrophil-Chemoattractant protein.

[5] = daily, GTx-186 20 mg/kg/day i.v., crizotinib 75 mg/kg p.o.

With `C[C@@H]1C[C@H]2[C@@H]3CCC4=CC(=O)C=C[C@]4(C)[C@@]3(F)[C@@H](O)C[C@]2(C)[C@@]1(O)C(=O)CO` [dexamethasone] the “expression of inflammatory pathway genes, including NGF, in ear punches” value [1] was “markedly inhibited” and the “MMP-3 expression induced by PMA” value (MMP-3) was “inhibited”.

`C[C@@H](Oc1cc(-c2cnn(C3CCNCC3)c2)cnc1N)c1c(Cl)ccc(F)c1Cl` [crizotinib] was tested, and the tumor growth inhibition ([2]; crizotinib 75 mg/kg p.o. daily) was 90%, the “tumor growth (tumor volume)” value [2, 5] was “significantly reduced” and the tumor weight [2, 5] was “significantly reduced”. For the same compound, the “body weight, visible toxicity” value ([2]; mouse, in vivo) was “without affecting body weight”, the “phosphorylation of ROS1 fused to FIG” value (FIG-ROS1) was “extremely effective in inhibiting” and the IC50 ([3]; 72 h, read-out: IC50, proliferation of NIH3T3:FIG-ROS1 (S), 3 days) was 24 nM. The IC50 ([3]; read-out: IC50, proliferation of NIH3T3:FIG-ROS1 (S), 3 days) was 26 nM, the “time of treatment at which cells were arrested in G0/G1 phase” value (HCC78 cells) was 6 days and the IC50 (HCC78 lung cancer cells) was 495 nM.

`COc1ccc2c(c1)c(CC(=O)O)c(C)n2C(=O)c1ccc(Cl)cc1` [indomethacin] was tested, and the “TNF-α levels in pouch exudates after carrageenan (ELISA, cytokine array)” value [4] was “effectively inhibited”, the “carrageenan-induced CINC-1, CINC-2, IL-6, and LIX in pouch exudates (cytokine array)” value [4] was “only GTx-186 inhibited” and the “carrageenan-induced CINC-3, TIMP-1, PDGFa, MMP-8, and MCP-1 in pouch exudates (cytokine array)” value [4] was “neither GTx-186 nor indomethacin inhibited”. For the same compound, the “carrageenan-induced TNF-α, IL-1β, fractalkine, IL-13, and leptin in pouch exudates (cytokine array)” value [4] was “inhibited”.

Source: article PMC3873281, “Discovery and Preclinical Characterization of Novel Small Molecule TRK and ROS1 Tyrosine Kinase Inhibitors for the Treatment of Cancer and Inflammation” (PLoS ONE, 2013)
